Here are results for 90 compounds from PubChem BioAssay AID434954 (Broad Institute, 2010).

Calls of active or inactive are those of the source.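 How the source made its calls: active means IC50 at or below a set limit above the highest tested dose; inconclusive means flat curve with 30 to 70% inhibition, or poor fit; inactive means the rest.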

For this test, the target named is Glycogen synthase kinase-3 beta (Homo sapiens) (UniProt P49841). Kind of test: concentration-response blocking of human GSK3B – biochemical, luminescence, cell-free homogeneous, retest, dose response (AID 434954). Conditions: recombinant GSK3beta, ADP-Glo luminescence, 60 min. A general note: ADP-Glo turns the ADP formed in a reaction into a luminescent signal.
Glycogen synthase kinase-3 beta (Homo sapiens), sequence (P49841 whole entry, looked up): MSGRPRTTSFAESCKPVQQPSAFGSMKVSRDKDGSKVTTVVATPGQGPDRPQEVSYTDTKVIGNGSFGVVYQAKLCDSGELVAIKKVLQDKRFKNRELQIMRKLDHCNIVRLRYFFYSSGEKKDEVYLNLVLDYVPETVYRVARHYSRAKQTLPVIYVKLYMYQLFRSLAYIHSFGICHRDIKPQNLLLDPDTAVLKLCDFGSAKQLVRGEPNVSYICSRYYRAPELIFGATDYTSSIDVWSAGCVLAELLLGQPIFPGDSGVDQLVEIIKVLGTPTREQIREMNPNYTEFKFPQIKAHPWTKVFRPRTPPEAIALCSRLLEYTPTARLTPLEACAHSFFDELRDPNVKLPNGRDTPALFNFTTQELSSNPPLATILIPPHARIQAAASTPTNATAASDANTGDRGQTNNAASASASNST
The IC50 is the concentration that inhibits the measured activity by half. Regarding `Cc1c(C=Nc2ccc(S(=O)(=O)CCO)cc2)c(O)[nH]c(=O)c1C#N`, the IC50 was > 30 µM (inactive).
For `CCOC(=O)C1=C(C)Nc2ncnn2C1c1c[nH]c2ccccc12` (stereo not given) the value was 4.64 µM; for `O=C(O)CCn1cc(/C=N/O)c(-c2cccc([N+](=O)[O-])c2)n1`, 7.38 µM; for `N#CC(C#N)=C1NC(N)=C(C#N)C(c2ccccc2)=C1C#N`, 19.2 µM.
Regarding `Cc1ccc2c(c1)NC(c1cccs1)C1=C(CC(C)(C)CC1=O)N2` (stereo not given), the IC50 is > 30 µM (inactive).
Then `Cc1cc(=O)[nH]c(N/N=C/c2ccc(-c3ccc([N+](=O)[O-])cc3)o2)n1`, with > 30 µM (inactive); and `COc1ccc(-c2nn(-c3ccccc3)cc2/C=N/O)cc1OC`, with 3.99 µM.
Regarding `Clc1ccc(/C=N/Nc2ncnc3nc[nH]c23)cc1`, the IC50 is 20.4 µM.
For `CCc1ccccc1N1C(=O)CC(N2CCc3ccccc32)C1=O` (stereo not given), the IC50 was > 30 µM (inactive).
Then `CCOC(=O)C1=C(C)Nc2ncnn2C1/C=C/c1ccccc1` (stereo not given), with > 30 µM (inactive).
Then `COc1cc(/C=N/NC(=O)c2ccc(O)cc2)ccc1Oc1ccc([N+](=O)[O-])cn1`, with > 30 µM (inactive); and `CCOc1cc(C2C(C(=O)N3CCCCC3)=C(C)NC3=C2C(=O)CC(C)(C)C3)ccc1O` (stereo not given), with > 30 µM (inactive); and `CC1=C(C(=O)Nc2ccccc2F)C(c2ccsc2)C2=C(CC(C)(C)CC2=O)N1` (stereo not given), with > 30 µM (inactive).
For `CCOc1ccc(/C=C2/C(=N)N3OC(C)=CC3=NC2=O)cc1OC` the value was > 30 µM (inactive).
In the case of `COc1ccc(-c2nn(-c3ccccc3)cc2/C=N/Nc2ccc3ccccc3n2)cc1OC`, the IC50 was > 30 µM (inactive).
Turning to `Cc1c(C#N)c(O)[nH]c(=O)c1N=Nc1ccc(Br)cc1C(=O)O`, the IC50 is > 30 µM (inactive).
For `Oc1ccc(/C=N/Nc2ncnc3nc[nH]c23)cc1` the value was > 30 µM (inactive); for `Cc1[nH]nc2c1C(c1cccs1)C1=C(CC(C)(C)CC1=O)N2` (stereo not given), 1.36 µM.
In the case of `N#CC(=C=[N-])c1nc2ccccc2nc1-[n+]1cccc(NC(=O)c2ccccc2)c1`, the IC50 was > 30 µM (inactive).
Regarding `COc1cc(/C=N/Nc2nc(Nc3ccccc3)nc(N3CCCCC3)n2)ccc1OCC(=O)O`, the IC50 was > 30 µM (inactive).
For `Cc1[nH]nc2c1C(c1cccs1)C1=C(CCCC1=O)N2` (stereo not given) the value was 10.6 µM.
As for `CCCCCOC(=O)C1=C(C)Nc2ncnn2C1c1cccs1` (stereo not given), the IC50 was > 30 µM (inactive).
As to `O=C1CCCC2=C1C(c1cccs1)n1nc(SCc3ccccc3)nc1N2` (stereo not given), the IC50 is > 30 µM (inactive).
For `O=C1CC(c2c[nH]c3ccccc23)C(=O)N1c1ccccc1` (stereo not given) the value was > 30 µM (inactive).
Then `CCOC(=O)c1sc2c(c1C)C(c1cccs1)C1=C(CCCC1=O)N2` (stereo not given), with > 30 µM (inactive).
For `COC(=O)c1ccc(N2C(=O)CC(N3CCN(C(=O)c4ccco4)CC3)C2=O)cc1` (stereo not given), the IC50 is > 30 µM (inactive).
For `O/N=C/c1cn(-c2ccccc2)nc1-c1cccnc1` the value was 6.45 µM; for `Oc1[nH]c2ccccc2c1C=Nc1ccc2c(c1)OCO2`, 11.4 µM; for `CSc1nc2c(c(=O)[nH]1)C(c1ccccc1)C1=C(CC(C)(C)CC1=O)N2` (stereo not given), > 30 µM (inactive).
In the case of `CC1(C)CC(=O)C2=C(C1)Nc1ccccc1NC2c1ccc(F)cc1` (stereo not given), the IC50 is > 30 µM (inactive).
For `O=C1C(=O)N(c2ccccn2)C(c2ccc(Br)cc2)/C1=C(/O)c1ccc(Br)cc1` (stereo not given) the value was > 30 µM (inactive); for `O=C(O)c1ccc(N=Nc2c(O)[nH]c3cc(Cl)ccc23)cc1`, 19.1 µM.
Then `COc1cc(C2C3=C(CC(C)(C)CC3=O)Nc3c2c(=O)[nH]c(=O)n3Cc2ccccc2)ccc1O` (stereo not given), with > 30 µM (inactive); and `C/C(=N\O)c1ncc(C(F)(F)F)cc1Cl`, with > 30 µM (inactive).
Then `CC1=C(C(=O)OC(C)C)C(c2c[nH]c3ccccc23)n2ncnc2N1` (stereo not given), with 1.81 µM; and `COc1ccc(-c2nn(-c3ccccc3)cc2/C=N/Nc2ccc(Cl)c(C(=O)O)c2)cc1OC`, with > 30 µM (inactive).
On to `O/N=C/c1cn(-c2ccccc2)nc1-c1ccccc1`, for which the IC50 is 26 µM.
For `O=c1[nH]c(=O)n(CCc2ccc(F)cc2)c(O)c1/C=N/N1CCCCC1` the value was > 30 µM (inactive).
For `CCOC(=O)C1=C(C)Nc2ncnn2C1c1cc(Br)ccc1F` (stereo not given) the value was 24 µM; for `COc1cc(C2C(C#N)=C(C)NC3=C2C(=O)CC(C)(C)C3)ccc1O` (stereo not given), > 30 µM (inactive); for `COc1ccc(OC)c(N=c2oc3cc(O)ccc3cc2C(N)=O)c1`, 11.9 µM.
For `Cc1ccc(C2C3=C(CC(C)(C)CC3=O)Nc3[nH]c(=S)[nH]c(=O)c32)cc1` (stereo not given) the value was > 30 µM (inactive).
On to `O=c1[nH]c(N/N=C/c2ccccc2)nc2ccccc12`, for which the IC50 is > 30 µM (inactive).
For `C/C(=N\Nc1nccnc1Cl)c1ccc(Br)cc1` the value was > 30 µM (inactive).
For `COc1ccc(C2C(C(C)=O)=C(O)C(=O)N2c2nccs2)c(OC)c1` (stereo not given) the value was > 30 µM (inactive); for `CC1(C)CC(=O)C2=C(C1)Nc1cc3c(cc1C2c1ccc(F)cc1)OCO3` (stereo not given), > 30 µM (inactive); for `COc1cc(C2C(C(=O)c3cccs3)=C(O)C(=O)N2CCN2CCOCC2)ccc1OCCC(C)C` (stereo not given), > 30 µM (inactive).
Then `Fc1ccccc1/C=N/Nc1ncnc2nc[nH]c12`, with 11.2 µM; and `O=C(NCCCN1CCCC1=O)c1c(O)nc2sccn2c1=O`, with > 30 µM (inactive).
Regarding `O=c1[nH]c(=O)n(Cc2ccc(F)cc2)c(O)c1C=NCCN1CCCCC1`, the IC50 was > 30 µM (inactive).
Then `N=C(N)N=Nc1c(O)[nH]c2ccc(Br)cc12`, with 31.4 µM.
`COc1cc(/C=N/O)ccc1OCc1ccccc1Cl`: the IC50 is > 30 µM (inactive).
Then `Cc1ccc(C2C3=C(CC(C)(C)CC3=O)Nc3onc(C)c32)cc1` (stereo not given), with > 30 µM (inactive); and `CC1=C(C(=O)N2CCCCC2)C(c2cccs2)C2=C(CCCC2=O)N1` (stereo not given), with > 30 µM (inactive).
For `Cc1ccccc1/C=N/Nc1ncnc2nc[nH]c12` the value was 17.1 µM; for `COc1cccc(C2Nc3ccccc3NC3=C2C(=O)CC(C)(C)C3)c1` (stereo not given), > 30 µM (inactive); for `O=C(O)c1ccc(-c2ccc(/C=N/Nc3ccc([N+](=O)[O-])cc3)o2)cc1`, > 30 µM (inactive).
For `O=C1CC(SC(=Nc2ccccc2)Nc2ccccc2)C(=O)N1c1cccc2ccccc12` (stereo not given) the value was > 30 µM (inactive); for `O=C1CCCC2=C1C(c1cccs1)n1ncnc1N2` (stereo not given), > 30 µM (inactive); for `CCCC1=C(C(=O)OCC)C(c2sccc2C)n2ncnc2N1` (stereo not given), > 30 µM (inactive).
Consider `CC1=C(C(N)=O)C(c2sccc2C)n2nnnc2N1` (stereo not given), for which the IC50 was > 30 µM (inactive).
Then `COc1ccc(-c2c(C)n([O-])c(C)c(C)[n+]2=O)cc1`, with > 30 µM (inactive).
For `Cc1[nH]nc2c1C(c1ccc(O)cc1)C1=C(CC(C)(C)CC1=O)N2` (stereo not given), the IC50 is 2.06 µM.
For `CCOc1cc(C2Nc3ccccc3NC3=C2C(=O)CC(C)(C)C3)ccc1O` (stereo not given) the value was > 30 µM (inactive); for `Oc1ccccc1/C=N/Nc1nn[nH]n1`, > 30 µM (inactive).
Then `COc1cc(CN=Cc2c(O)n(C(C)(C)C)c(=O)[nH]c2=O)cc(OC)c1`, with > 30 µM (inactive); and `CC1=C(C(=O)OCc2ccccc2)C(c2ccccc2OC(F)F)NC(=O)N1` (stereo not given), with 4.4 µM; and `O=C(Nc1cccc2c1C(=O)NC2=O)c1cccc(N2C(=O)CCC2=O)c1`, with > 30 µM (inactive).
For `CCOC(=O)/C(C(=O)Nc1ccc(Cl)cc1Cl)=C1/NC(C)(C)Cc2ccccc21` the value was > 30 µM (inactive).
Turning to `O/N=C/c1ccc(OCc2ccccc2)c(Cl)c1`, the IC50 was > 30 µM (inactive).
Then `CCOC(=O)C1=C(C)Nc2ncnn2C1c1cccnc1` (stereo not given), with > 30 µM (inactive); and `Cc1ccc(/C=N/Nc2ncnc3nc[nH]c23)cc1`, with 30.1 µM.
For `Nc1ncnc2c1ncn2C1OC(CO)C(O)C1O` (stereo not given), the IC50 is > 30 µM (inactive).
For `COc1cccc(C2C(C#N)=C(C)NC3=C2C(=O)CC(C)(C)C3)c1` (stereo not given) the value was > 30 µM (inactive).
Then `CCCCOC(=O)C1=C(C)Nc2ncnn2C1c1cc(OC)c(OC)cc1OC` (stereo not given), with > 30 µM (inactive).
For `COc1cccc(/C=N/Nc2cc(Cl)nc(C)n2)c1O` the value was > 30 µM (inactive); for `CCOC(=O)C1=C(C)Nc2ncnn2C1c1cc(OC)ccc1OC` (stereo not given), > 30 µM (inactive).
For the compound `CN(C)C=NC(=O)/C(C#N)=C1\CCc2ccccc2N1`, the IC50 was 20.1 µM.
Take `CC1=C(C(=O)Nc2ccccc2F)C(c2cccs2)C2=C(CCCC2=O)N1` (stereo not given): the IC50 was > 30 µM (inactive).
Then `O=C(O)c1ccc(N/N=C/c2ccc(-c3cccc(Cl)c3)o2)cc1`, with > 30 µM (inactive); and `CC1=C(C(=O)OCc2ccccc2)C(c2cccnc2)n2ncnc2N1` (stereo not given), with 28 µM.
Then `COc1ccc(-c2nn(-c3ccccc3)cc2/C=N/O)cc1`, with 0.432 µM; and `Cc1nn(-c2ccccn2)c2c1C(c1ccncc1)C1=C(CC(C)(C)CC1=O)N2` (stereo not given), with > 30 µM (inactive); and `CC(C)Sc1nc2c(c(=O)[nH]1)C(c1cccs1)C1=C(CC(C)(C)CC1=O)N2` (stereo not given), with > 30 µM (inactive).
As for `CCOC(=O)C1=C(C(F)(F)F)Nc2ncnn2C1c1cc(OC)ccc1OC` (stereo not given), the IC50 was > 30 µM (inactive).
Then `COc1ccc(-c2nn(-c3ccccc3)cc2/C=N/Nc2ccccn2)cc1`, with > 30 µM (inactive); and `O=[N+]([O-])c1cc(/C=N\O)ccc1Oc1ccc(F)cc1`, with 23 µM.
Take `C=CCOc1ccc(/C=N/Nc2ccccn2)cc1OC`: the IC50 is > 30 µM (inactive).
Turning to `COc1ccc(C2C3=C(CCCC3=O)Nc3n[nH]c(C)c32)cc1OC` (stereo not given), the IC50 was > 30 µM (inactive).
Then `O=C(O)c1cc(-c2ccc(/C=N/Nc3ccc(Cl)cc3)o2)ccc1Cl`, with > 30 µM (inactive).
